In paper PMC6346587, “Glucose 6-phosphate dehydrogenase 6-phosphogluconolactonase: characterization of the Plasmodium vivax enzyme and inhibitor studies” (Malaria Journal, 2019):
Positions count from the first letter of the chain named. Numbers in names are those of the source. Read-outs that look alike come from different tables or passages of the source.

What was measured:
[1] = biological target: T1, PfGluPho (Plasmodium falciparum, UniProt Q8IKU0); experiment: PfGluPho G6PD activity inhibition assay; assay type: biochemical
T1 construct: made in house
T1 sequence (Q8IKU0 1-910): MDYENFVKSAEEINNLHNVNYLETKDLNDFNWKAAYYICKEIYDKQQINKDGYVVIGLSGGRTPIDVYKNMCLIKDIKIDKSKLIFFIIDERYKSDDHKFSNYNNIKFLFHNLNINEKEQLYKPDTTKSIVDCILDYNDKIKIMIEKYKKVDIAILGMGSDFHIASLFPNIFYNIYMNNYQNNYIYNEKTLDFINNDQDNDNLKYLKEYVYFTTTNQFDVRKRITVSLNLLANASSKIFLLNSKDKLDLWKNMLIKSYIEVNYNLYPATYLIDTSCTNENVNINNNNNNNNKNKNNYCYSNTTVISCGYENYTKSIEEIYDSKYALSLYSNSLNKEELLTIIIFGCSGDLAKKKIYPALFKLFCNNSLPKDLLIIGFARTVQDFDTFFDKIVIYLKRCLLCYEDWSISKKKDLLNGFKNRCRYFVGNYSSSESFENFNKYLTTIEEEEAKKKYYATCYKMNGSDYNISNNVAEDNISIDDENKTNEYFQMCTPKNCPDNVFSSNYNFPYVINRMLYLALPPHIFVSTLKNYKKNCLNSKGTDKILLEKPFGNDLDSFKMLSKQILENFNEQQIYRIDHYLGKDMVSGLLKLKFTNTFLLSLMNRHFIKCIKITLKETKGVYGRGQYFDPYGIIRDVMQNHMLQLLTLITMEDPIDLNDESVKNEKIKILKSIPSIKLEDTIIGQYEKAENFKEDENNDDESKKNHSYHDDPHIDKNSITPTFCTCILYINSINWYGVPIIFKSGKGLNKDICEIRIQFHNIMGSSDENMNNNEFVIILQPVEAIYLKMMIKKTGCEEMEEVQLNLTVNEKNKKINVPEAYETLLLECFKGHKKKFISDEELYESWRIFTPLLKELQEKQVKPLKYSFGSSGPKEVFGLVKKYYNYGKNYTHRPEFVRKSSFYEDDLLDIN
Experimental: (§1) To identify potential inhibitors of PvG6PD, compounds with already known effects on PfGluPho (ellagic acid and derivatives, ML304) were tested. Additionally, several compound libraries of the Helmholtz Center for Infection Research, Brunswick, were screened against PfGluPho using the high-throughput-compatible assay systems described in Preuss et al.. […] Based on structure-activity relationship studies, a set of new potential G6PD inhibitors (Fig. 8) was then synthesized and assessed. First, the IC50 values of the compounds were determined, followed by mechanistic characterization of the mode of action. To test for selectivity of the compounds, the IC50 values of the compounds on PvG6PD, PfGluPho, and hG6PD were determined in parallel.
(§2) All measurements were performed in 96-well plates, half area (Greiner Bio-One, Frickenhausen, Germany) using a Tecan Infinite M200 plate reader (Maennedorf, Switzerland). The compounds were dissolved in 100% DMSO and afterwards diluted in assay buffer to the required concentrations. Different compound concentrations were added to a mixture of enzyme and NADP^+ in assay buffer. Concentrations of substrates differed depending on the enzyme; an overview is given in the Additional file 4. The reaction was started by adding G6P, and the increase of NADPH was monitored by measuring the absorbance at 340 nm. To increase the sensitivity of the assay, some measurements were reproduced, detecting the fluorescence of NADPH at ex340/em460. […] A negative control containing no compound was defined as 0% inhibition; a positive control lacking the substrate G6P was defined as 100% inhibition. For evaluations using GraphPad Prism and Microsoft Excel, only a linear increase in absorbance/fluorescence was considered. For the mechanistic characterization of the compounds, either NADP^+ or G6P were titrated at different compound concentrations around the IC50, while keeping the second substrate in saturation. The initial slope was plotted as Michaelis–Menten curves and Lineweaver–Burk plots using GraphPad Prism; KM values and Vmax were calculated with GraphPad Prism software.

[2] = Stability of compounds in enzyme assay buffer; assay type: physicochemical; conditions: 100 mM Tris–HCl pH 8.0 assay buffer, DMSO stock
[3] = biological target: T2, hG6PD (Homo sapiens, UniProt P11413); experiment: hG6PD enzyme inhibition assay; assay type: biochemical; conditions: for IC50 on hG6PD relative to plasmodial enzymes (selectivity): compared with PfGluPho and PvG6PD
T2 construct: made in house
T2 sequence (P11413 whole entry): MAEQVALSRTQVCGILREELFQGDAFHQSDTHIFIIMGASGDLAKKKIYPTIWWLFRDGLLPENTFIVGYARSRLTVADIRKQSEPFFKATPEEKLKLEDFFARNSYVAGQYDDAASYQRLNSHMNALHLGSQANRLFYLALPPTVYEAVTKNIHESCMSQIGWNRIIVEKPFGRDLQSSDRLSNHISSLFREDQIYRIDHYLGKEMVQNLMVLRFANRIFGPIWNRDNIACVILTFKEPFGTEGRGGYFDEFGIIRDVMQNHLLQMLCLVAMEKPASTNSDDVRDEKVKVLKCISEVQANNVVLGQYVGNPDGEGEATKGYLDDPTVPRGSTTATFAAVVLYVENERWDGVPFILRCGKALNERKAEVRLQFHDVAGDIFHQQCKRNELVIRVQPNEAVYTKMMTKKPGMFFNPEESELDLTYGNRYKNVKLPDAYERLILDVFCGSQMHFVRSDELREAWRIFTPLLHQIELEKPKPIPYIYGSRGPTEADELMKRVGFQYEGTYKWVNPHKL
Experimental: as §1, §2

[4] = biological target: PvG6PD (Plasmodium vivax, UniProt A5K3M1); experiment: PvG6PD enzyme inhibition assay (NADPH formation, absorbance 340 nm / fluorescence); assay type: biochemical; conditions: for IC50 on PvG6PD: ellagic acid and derivatives
PvG6PD, sequence (A5K3M1 entry or part of it): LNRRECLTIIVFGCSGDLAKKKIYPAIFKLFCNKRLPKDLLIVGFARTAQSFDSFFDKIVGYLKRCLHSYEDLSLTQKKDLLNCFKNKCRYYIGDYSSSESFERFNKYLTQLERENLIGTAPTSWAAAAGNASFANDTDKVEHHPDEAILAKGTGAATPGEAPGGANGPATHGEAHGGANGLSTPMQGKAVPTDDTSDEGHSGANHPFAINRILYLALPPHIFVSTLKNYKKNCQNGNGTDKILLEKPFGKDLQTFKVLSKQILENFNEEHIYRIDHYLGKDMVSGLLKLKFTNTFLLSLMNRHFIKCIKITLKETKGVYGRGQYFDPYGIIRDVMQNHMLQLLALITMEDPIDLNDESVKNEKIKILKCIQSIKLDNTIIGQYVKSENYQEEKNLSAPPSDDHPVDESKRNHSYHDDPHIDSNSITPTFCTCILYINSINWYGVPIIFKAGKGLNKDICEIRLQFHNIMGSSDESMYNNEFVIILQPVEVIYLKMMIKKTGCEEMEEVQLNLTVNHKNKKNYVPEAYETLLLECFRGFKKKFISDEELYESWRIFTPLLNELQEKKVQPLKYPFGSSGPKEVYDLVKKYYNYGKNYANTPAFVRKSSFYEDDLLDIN
Experimental: The G6PD activity of PfGluPho variants was measured spectrophotometrically as described for the wt enzyme. Kinetic characterization of PvG6PD was performed using the same assay system at an Evolution 300 spectrophotometer (Thermo Scientific, Dreieich, Germany). In brief, the initial reduction of NADP^+ to NADPH by PvG6PD was monitored by measuring the absorbance at 340 nm. The 500 µL reaction mixture contained 200 µM NADP^+ and varying concentrations of PvG6PD in an assay buffer of 100 mM Tris–HCl, pH 8.0, 10 mM MgCl2, and 0.5 mM EDTA at 25 °C. The reaction was started by adding 800 µM G6P. The KM for NADP^+ was determined by titrating NADP^+ from 2 to 400 µM at 800 µM G6P; the KM for G6P was measured accordingly by titrating G6P from 2 to 1200 µM at 200 µM NADP^+. KM values were calculated using GraphPad Prism. Since the KM for G6P was considerably higher than the value measured for PfGluPho [14], a concentration of 800 µM G6P was defined as substrate saturation for PvG6PD.
as §1, §2

[5] = biological target: T1, PfGluPho; conditions: ML276; read-out: IC50 against PfGluPho; cited from earlier work
[6] = biological target: T2, hG6PD; conditions: ML276; read-out: IC50 against hG6PD; cited from earlier work
[7] = biological target: the molecule itself; experiment: SEC; size exclusion chromatography of purified PfGluPho mutants under reducing conditions
[8] = mean ± SD, at least two independent determinations, different enzyme batches, read-out: IC50 on PfGluPho
[9] = mean ± SD, only one enzyme batch, read-out: IC50 on hG6PD

Molecule: N#CC(Br)c1ncccn1 (stereo not drawn) [2 (vz1731)]
- IC50 [1, 8]: 11.7 ± 9.9 µM
- Stability in the assay buffer / of dissolved compound [2]: only active when the powder was freshly dissolved
- IC50 [3, 9]: 91.7 ± 35 µM
- IC50 [4]: 2.1 ± 0.1 µM

Molecule: N#CC(Br)c1ncccc1Cl (stereo not drawn) [4 (vz1732)]
- Type of inhibition of PfGluPho against G6P and NADP+ ([1]; both substrate G6P and coenzyme NADP+): non-competitively
- IC50 [1, 8]: 0.9 ± 0.2 µM
- Stability in the assay buffer / of dissolved compound [2]: only active when the powder was freshly dissolved
- IC50 on hG6PD relative to plasmodial enzymes (selectivity) [3]: one to two orders of magnitude higher
- IC50 [3, 9]: 34.7 ± 21 µM
- IC50 [4]: 0.2 µM

Molecule: ClC=C(n1nnc2ccccc21)n1nnc2ccccc21 [8 (vz0882)]
- IC50 [1, 8]: 18.1 ± 10.4 µM
- Stability in the assay buffer / of dissolved compound [2]: less stable
- IC50 [4]: 12.8 ± 7.8 µM

Molecule: O=C(O)C(Cl)(C=C(Cl)Cl)[N+](=O)[O-] (stereo not drawn) [10 (vz1204)]
- IC50 [3, 9]: > 100 µM
- IC50 [4]: 23.5 ± 3.7 µM

Molecule: O=CC(Cl)=C(I)I [13 (vz0288)]
- IC50 [1, 8]: 29.6 ± 23.2 µM
- IC50 [3, 9]: > 100 µM
- IC50 ([4]; mean ± SD, at least two independent determinations, different enzyme batches, read-out: IC50 on PvG6PD): 23.3 ± 7.8 µM

Molecule: O=C(C(=C1N(Cc2ccc(Cl)nc2)CCN1Cc1ccc(Cl)nc1)[N+](=O)[O-])C(Cl)(Cl)[N+](=O)[O-] [18 (vz0909)]
- IC50 [1]: 23.6 ± 14.3 µM
- Stability in the assay buffer / of dissolved compound [2]: less stable
- IC50 [3]: 26 ± 1.8 µM
- IC50 [4]: 9.1 ± 2.8 µM

Molecule: O=C(/C(=C1\N(Cc2ccc(Cl)nc2)CCN1Cc1cnc(Cl)s1)[N+](=O)[O-])C(Cl)(Cl)[N+](=O)[O-] [19 (vz0914)]
- IC50 [1]: 8.4 ± 8.4 µM
- Stability in the assay buffer / of dissolved compound [2]: less stable
- IC50 [3]: 29.6 ± 5 µM
- IC50 [4]: 5.6 ± 0.6 µM

Molecule: O=[N+]([O-])C(C(Cl)=C(Cl)Cl)=C1N(c2ccccc2)CCN1c1ccccc1 [20 (vz0005)]
- IC50 [1, 8]: > 100 µM
- IC50 [3, 9]: > 100 µM
- IC50 [4]: > 100 µM

Molecule: C=C[S+]([O-])c1sc(Cl)c(N2CCN(c3c(Cl)sc([S+]([O-])C=C)c3[N+](=O)[O-])CC2)c1[N+](=O)[O-] (stereo not drawn) [21 (vz0527)]
- IC50 [1]: 1.7 ± 0.3 µM
- Stability in the assay buffer / of dissolved compound [2]: only active when the powder was freshly dissolved
- IC50 [3]: 8.3 ± 2.7 µM
- IC50 on hG6PD relative to plasmodial enzymes (selectivity) [3]: one to two orders of magnitude higher
- IC50 [4]: 0.2 ± 0.1 µM

Molecule: O=c1oc2c(O)c(O)c(O)c3c(=O)oc4c(O)c(O)c(O)c1c4c23 [CEA, coruleoellagic acid]
- IC50 [4]: 0.0444 ± 0.0019 µM
- IC50 on PvG6PD [4]: lower nanomolar range

Molecule: O=c1oc2c(O)c(O)c(O)c3c(=O)oc4c(O)c(O)cc1c4c23 [FEA, flavellagic acid]
- IC50 [4]: 0.0372 ± 0.0058 µM
- IC50 on PvG6PD [4]: lower nanomolar range

Molecule: CCN1CCC[C@@H]1CNC(=O)c1ccc2c(c1)NC(=O)/C(=C/c1ccccc1F)S2 [ML276, (R, Z)-N-((1-ethylpyrrolidin-2-yl)methyl)-2-(2-fluorobenzylidene)-3-oxo-3,4-dihydro-2H-benzo[b][1,4]thiazine-6-carboxamide]
- IC50 [5]: 0.89 µM
- IC50 [6]: > 80 µM

B1: PfGluPho S315Y (enzyme)
chain: T1 sequence (Q8IKU0 1-910) with S315Y
notes: source: E. coli, purified (size exclusion chromatography under reducing conditions); produced as described previously [14]
- stoichiometry N [7]: 4

B2: PfGluPho F507L (enzyme)
chain: T1 sequence (Q8IKU0 1-910) with F507L
notes: as for B1
- stoichiometry N [7]: 4

B3: PfGluPho S899E (phosphomimetic mutant) (enzyme)
chain: T1 sequence (Q8IKU0 1-910) with S899E
notes: as for B1
- stoichiometry N [7]: 4

B4: PfGluPho L395F (enzyme)
chain: T1 sequence (Q8IKU0 1-910) with L395F
notes: as for B1
- stoichiometry N [7]: 4

B5: PfGluPho S900E (phosphomimetic mutant) (enzyme)
chain: T1 sequence (Q8IKU0 1-910) with S900E
notes: as for B1
- stoichiometry N [7]: 4
